Data set [1] can be described thus: Solubility test of the crystalline compound (1) and the amorphous compound (1) (apparent solubility in buffer, HPLC). To be noted: room temperature, 30 minutes standing after ultrasonication. The class given is physicochemical. Here is the method:
An excess amount of each sample was added to 0.5 mL of the following each test solution, which was then dispersed and dissolved by a ultrasonication operation for several minutes (about 3 minutes). After allowing to stand at room temperature for 30 minutes, the supernatant was separated by a centrifugation operation; the sample concentration in the supernatant as determined by an HPLC method was defined as an apparent solubility in each test solution.
pH 5: Diluted Mcllvaine buffer solution (Kanto Chemical Co. Inc.)
pH 7: GIBCO™ (Dulbecco's phosphate-buffered saline, Invitrogen Corporation)

A short description of data set [2]: Hygroscopicity test of the amorphous compound (1) (microbalance, weight change vs relative humidity). The class given is physicochemical. As to conditions: 25° C., relative humidities of 5% to 90%; FIG. 3. As to the method: The hygroscopicity of the amorphous substance was evaluated using a microbalance (MB300W, VTI Corporation, USA). A sample placed in a glass holder was suspended in a device adjusted at 25° C., and a change in the weight thereof was followed over relative humidities of 5% to 90%. The sample weight was measured at measuring points (of the relative humidities) with an interval of 2 minutes; the weight at the time point of the amount of change reaching within 0.2% was defined as the final value.

Where [3] appears, read: pH 5 buffer (diluted McIlvaine buffer solution).
The mark [4] stands for this setting: pH 7 buffer (Dulbecco's phosphate-buffered saline).

Molecules are shown by their SMILES.

Regarding `COc1cc(/C=C2\CCCN([C@@H](C)c3ccc(F)cc3)C2=O)ccc1-n1cnc(C)c1` [Amorphous compound (1), (3E)-1-[(1S)-1-(4-fluorophenyl)ethyl]-3-[3-methoxy-4-(4-methyl-1H-imidazol-1-yl)benzylidene]piperidin-2-one], the figures for the Apparent solubilites in data set [1] (setting [3]) and in data set [1] (setting [4]) were 0.225 mg/mL and 0.011 mg/mL, respectively. Moreover, in data set [2], the “Hygroscopicity (weight change over relative humidity)” value is on record as “low hygroscopicity”.

Turning to `COc1cc(/C=C2\CCCN([C@@H](C)c3ccc(F)cc3)C2=O)ccc1-n1cnc(C)c1` [Crystalline compound (1), (3E)-1-[(1S)-1-(4-fluorophenyl)ethyl]-3-[3-methoxy-4-(4-methyl-1H-imidazol-1-yl)benzylidene]piperidin-2-one], the Apparent solubilites in data set [1] (setting [3]) is on record as 0.077 mg/mL; in data set [1] (setting [4]), 0.003 mg/mL.

The values are drawn from patent US7923563B2, “Amorphous object of cinnamide compound” (Eisai R&D Management Co., Ltd., priority 2004, dated 2011).
